Our source for the IC50 values is patent US20240199587A1, “HETEROCYCLIC COMPOUNDS” (Hoffmann-La Roche Inc., priority 2021, published 2024).

The structures appear in SMILES notation. pIC50: −log10 of the molar value.

This assay deals with T1, MAGL (Homo sapiens, UniProt Q99685).
T1 sequence (Q99685 1-303): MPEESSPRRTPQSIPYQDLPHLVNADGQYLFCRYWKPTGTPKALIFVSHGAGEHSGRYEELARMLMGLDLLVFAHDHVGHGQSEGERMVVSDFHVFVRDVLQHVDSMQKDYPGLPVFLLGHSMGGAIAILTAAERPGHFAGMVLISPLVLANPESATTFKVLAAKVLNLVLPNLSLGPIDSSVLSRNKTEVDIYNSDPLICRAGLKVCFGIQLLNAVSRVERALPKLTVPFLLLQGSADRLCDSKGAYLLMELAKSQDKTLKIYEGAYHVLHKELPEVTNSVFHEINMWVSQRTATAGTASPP
Kind of assay: 2-AG assay (MAGL inhibitory activity, hydrolysis of 2-arachidonoylglycerol to arachidonic acid followed by mass spectrometry). The format is biochemical. Conditions: 8 μM 2-arachidonoylglycerol, 15 min pre-incubation, 30 min incubation at RT, RapidFire MS readout. An outline of the steps: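 Human MAGL ([…] final) pre-incubated 15 min at RT with compound in 50 mM TRIS, 1 mM EDTA, 0.01% Tween-20, 2.5% DMSO; 8 μM 2-AG then added for 30 min at RT. Acetonitrile quench with d8-arachidonic acid; arachidonic acid measured by RapidFire SPE–MS/MS, activity from arachidonic acid/d8 ratio.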
As usually defined, the pIC50 is −log10 of the IC50, conventionally taken in molar units. A lower pIC50 goes with a high IC50. For the molecule `O=C(N1CC2(CC(Oc3cc(C(F)(F)F)ncn3)C2)C1)N1CC2(CC(n3cnc(C4CC4)n3)C2)C1` [Example 57, [6-(3-cyclopropyl-1,2,4-triazol-1-yl)-2-azaspiro[3.3]heptan-2-yl]-[6-[6-(trifluoromethyl)pyrimidin-4-yl]oxy-2-azaspiro[3.3]heptan-2-yl]methanone], the pIC50 is 8.60. For `O=C(N1CC2(CC(Oc3nccc(C(F)(F)F)n3)C2)C1)N1CC2(CC(n3cnc(C4CC4)n3)C2)C1` [Example 58, [6-(3-cyclopropyl-1,2,4-triazol-1-yl)-2-azaspiro[3.3]heptan-2-yl]-[6-[4-(trifluoromethyl)pyrimidin-2-yl]oxy-2-azaspiro[3.3]heptan-2-yl]methanone], the pIC50 was 8.59.

Consider `O=C(N1CC2(CC(Oc3ccc(F)cc3F)C2)C1)N1CC2(CC(n3cnc(C4CC4)n3)C2)C1` [Example 59, (6-(3-cyclopropyl-1H-1,2,4-triazol-1-yl)-2-azaspiro[3.3]heptan-2-yl)(6-(2,4-difluorophenoxy)-2-azaspiro[3.3]heptan-2-yl)methanone], for which the pIC50 was 8.59. Then `COc1ccc(OC2CC3(C2)CN(C(=O)N2CC4(CC(n5cnc(C6CC6)n5)C4)C2)C3)cn1` [Example 60, (6-(3-cyclopropyl-1H-1,2,4-triazol-1-yl)-2-azaspiro[3.3]heptan-2-yl)(6-((6-methoxypyridin-3-yl)oxy)-2-azaspiro[3.3]heptan-2-yl)methanone], with 8.28.

With `O=C(N1CC2(CC(Oc3cnc(C(F)(F)F)nc3)C2)C1)N1CC2(CC(n3cnc(C4CC4)n3)C2)C1` [Example 61, (6-(3-cyclopropyl-1H-1,2,4-triazol-1-yl)-2-azaspiro[3.3]heptan-2-yl)(6-((2-(trifluoromethyl)pyrimidin-5-yl)oxy)-2-azaspiro[3.3]heptan-2-yl)methanone], the pIC50 is 8.27.

Regarding `O=C(N1CC2(CC(Oc3ccc(C(F)(F)F)nn3)C2)C1)N1CC2(CC(n3cnc(C4CC4)n3)C2)C1` [Example 62, [6-(3-cyclopropyl-1,2,4-triazol-1-yl)-2-azaspiro[3.3]heptan-2-yl]-[6-[6-(trifluoromethyl)pyridazin-3-yl]oxy-2-azaspiro[3.3]heptan-2-yl]methanone], the pIC50 was 8.14. In turn, `O=C(N1CC2(CC(Oc3cncc(F)c3)C2)C1)N1CC2(CC(n3cnc(C4CC4)n3)C2)C1` [Example 63, (6-(3-cyclopropyl-1H-1,2,4-triazol-1-yl)-2-azaspiro[3.3]heptan-2-yl)(6-((5-fluoropyridin-3-yl)oxy)-2-azaspiro[3.3]heptan-2-yl)methanone] had a pIC50 of 7.70. The value for `CC(C)(C)c1nc(-c2ccc(C(=O)N3CC4(CC(n5cnc(C6CC6)c5)C4)C3)cc2)no1` [Example 64, (4-(5-(tert-butyl)-1,2,4-oxadiazol-3-yl)phenyl)(6-(4-cyclopropyl-1H-imidazol-1-yl)-2-azaspiro[3.3]heptan-2-yl)methanone] was 7.66. Consider `O=C(N1CC2(CC(OCC(F)(F)F)C2)C1)N1CC2(CC(n3cnc(C4CC4)n3)C2)C1` [Example 65, [6-(3-cyclopropyl-1,2,4-triazol-1-yl)-2-azaspiro[3.3]heptan-2-yl]-[6-(2,2,2-trifluoroethoxy)-2-azaspiro[3.3]heptan-2-yl]methanone], for which the pIC50 was 7.08. This pIC50 is 0.58 log units lower than that of the molecule before.

The molecule `Cn1ccc(OC2CC3(C2)CN(C(=O)N2CC4(CC(n5cnc(C6CC6)n5)C4)C2)C3)cc1=O` [Example 66, 4-[[2-[6-(3-cyclopropyl-1,2,4-triazol-1-yl)-2-azaspiro[3.3]heptane-2-carbonyl]-2-azaspiro[3.3]heptan-6-yl]oxy]-1-methyl-pyridin-2-one] had a negative logarithm of the IC50 (pIC50) of 6.80.

For the molecule `O=C(N1CC(c2ccc(C3(C(F)(F)F)CC3)cc2)C1)N1CC2(CC(n3ncnc3C3CC3)C2)C1` [Example 67, [6-(5-cyclopropyl-1,2,4-triazol-1-yl)-2-azaspiro13.31heptan-2-yl]−[3-[4-[1-(trifluoromethyl)cyclopropyl]phenyl]azetidin-1-yl]1methanone], the pIC50 is 5.50.

As to `O=C(N1CC2(CC(Oc3ccc(F)c(F)c3)C2)C1)N1CC2(CC(n3cnc(C4CC4)n3)C2)C1` [Example 68, [6-(3-cyclopropyl-1,2,4-triazol-1-yl)-2-azaspiro[3.3]heptan-2-yl]-[6-(3,4-difluorophenoxy)-2-azaspiro[3.3]heptan-2-yl]methanone], the pIC50 is 9.05.

`O=C(N1CC(c2ccc(OC(F)(F)F)c(Cl)c2)C1)N1CC2(CC(n3cnc(C4CC4)c3)C2)C1` [Example 69] showed a pIC50 of 8.70.

Molecule `O=C(N1CC2(CC(Oc3cnc(C(F)(F)F)cn3)C2)C1)N1CC2(CC(n3cnc(C4CC4)n3)C2)C1` [Example 70, [6-(3-cyclopropyl-1,2,4-triazol-1-yl)-2-azaspiro[3.3]heptan-2-yl]-[6-[5-(trifluoromethyl)pyrazin-2-yl]oxy-2-azaspiro[3.3]heptan-2-yl]methanone] showed a pIC50 of 8.68. Then `O=C(N1CC(OCc2ccc(OC(F)(F)F)cc2)C1)N1CC2(CC(n3cnc(C4CC4)n3)C2)C1` [Example 71, (6-(3-cyclopropyl-1H-1,2,4-triazol-1-yl)-2-azaspiro[3.3]heptan-2-yl)(3-((4-(trifluoromethoxy)ben-zyl)oxy)azetidin-1-yl)methanone], with 8.15; and `O=C(N1CC(OCc2ccc(C(F)(F)F)cc2)C1)N1CC2(CC(n3cnc(C4CC4)n3)C2)C1` [Example 72, (6-(3-cyclopropyl-1H-1,2,4-triazol-1-yl)-2-azaspiro[3.3]heptan-2-yl)(3-((4-(trifluoromethyl)benzyl)oxy)azetidin-1-yl)methanone], with 8.41. `O=C(N1CC(OCc2cc(C(F)(F)F)ccc2F)C1)N1CC2(CC(n3cnc(C4CC4)n3)C2)C1` [Example 73, (6-(3-cyclopropyl-1H-1,2,4-triazol-1-yl)-2-azaspiro[3.3]heptan-2-yl)(3-((2-fluoro-5-(trifluoromethyl)benzyl)oxy)azetidin-1-yl)methanone] showed a pIC50 of 8.09. `O=C(N1CC(OCc2ccc(C(F)(F)F)c(F)c2)C1)N1CC2(CC(n3cnc(C4CC4)n3)C2)C1` [Example 74, (6-(3-cyclopropyl-1H-1,2,4-triazol-1-yl)-2-azaspiro[3.3]heptan-2-yl)(3-((3-fluoro-4-(trifluoromethyl)benzyl)oxy)azetidin-1-yl)methanone] gave a pIC50 of 6.80. Regarding `O=C(N1CC(OCc2ccc(OC(F)(F)F)cc2F)C1)N1CC2(CC(n3cnc(C4CC4)n3)C2)C1` [Example 75, (6-(3-cyclopropyl-1H-1,2,4-triazol-1-yl)-2-azaspiro[3.3]heptan-2-yl)(3-((2-fluoro-4-(trifluoromethoxy)ben-zyl)oxy)azetidin-1-yl)methanone], the negative logarithm of the IC50 (pIC50) is 8.57. The value for `O=C(N1CC(OCc2cc(F)cc(C(F)(F)F)c2)C1)N1CC2(CC(n3cnc(C4CC4)n3)C2)C1` [Example 76, (6-(3-cyclopropyl-1H-1,2,4-triazol-1-yl)-2-azaspiro[3.3]heptan-2-yl)(3-((3-fluoro-5-(trifluoromethyl)benzyl)oxy)azetidin-1-yl)methanone] was 8.66; that for `O=C(N1CC(OCc2ccc(F)cc2Cl)C1)N1CC2(CC(n3cnc(C4CC4)n3)C2)C1` [Example 77, (3-((2-chloro-4-fluorobenzyl)oxy)azetidin-1-yl)(6-(3-cyclopropyl-1H-1,2,4-triazol-1-yl)-2-azaspiro[3.3]heptan-2-yl)methanone] was 8.04.
